“And” between values parts separate entries of the source, which are not always exact repeats. Identical values can stand only once. “Also recorded” adds a separate entry of the source.
How the values were obtained:
[1] = test system: L. infantum promastigotes; conditions: cited from earlier work; for IC50: read-out: IC50 against L. infantum promastigotes
[2] = Evaluation of cytotoxicity on THP-1 cells (MTS); type: cell-based, human; conditions: human; 72 h, scalar dilutions 1:2 from 100 to 3.12 µM; mean (95% CI); read-out: THP‐1 CC50 (µM) (95% CI)
Experimental: (§1) Finally, eighteen compounds were first screened for efficacy against L. infantum MHOM/TN/80/IPT1 promastigotes at a single dose of 20 µM for 72 hours.
(§2) L. infantum MHOM/TN/80/IPT1 (WHO international reference strain) was purchased from ATCC (ATCC® 50134™) and was cultured in Evans's Modified Tobie Medium (EMTM) at 26–28 °C. To test the compounds, parasites were resuspended in RPMI-PY medium as described previously. The human monocytic cell line THP-1 (ECACC 88081201) was cultured in RPMI-1640 medium supplemented with 10% heat-inactivated Fetal Bovine Serum (FBS), 100 μg/ml streptomycin, […] and maintained in a humidified incubator at 37 °C and 5% CO2. All the cell culture reagents were purchased from Sigma-Aldrich (St. Louis, MO, USA).
(§3) The cytotoxicity of the compounds was assessed on THP-1 cells seeded at a density of 5 × 10^5 cells per mL, 100μL/well in a 96-well plate and treated for 72 h with 20 ng/mL phorbol myristic acid (PMA) to induce differentiation into macrophages like cells. After cell adhesion to the plate, each molecule was tested at 4, 20 and 100 μM for 72 h at 37 °C.
(§4) Three selected compounds were further evaluated at different concentration, obtained from scalar dilutions 1:2 (from 100 µM to 3.12 μM) for 72 h at 37°C. The negative control (untreated THP-1 cells) and the positive control (miltefosine) were included in each experiment. Each condition was carried out in duplicate. To evaluate the compounds cytotoxicity, the CellTiter 96H Aqueous Non-Radioactive Cell Proliferation Assay (Promega), was used as described before. […]

THP-1 cells = experiment: Evaluation of cytotoxicity on THP-1 cells (MTS); type: cell-based, human; conditions: for Cytotoxicity on THP‐1 (100, 20, 4 µM) (%): 72 h, PMA-differentiated THP-1; for SI (Selectivity index = CC50/IC50): CC50 THP-1 (72 h) / IC50 L. infantum promastigotes (72 h)
Experimental: as §1, §2, §3, §4

[3] = test system: intracellular L. infantum amastigotes; experiment: Anti-amastigote assay on infected THP-1 cells; type: cell-based, Leishmania infantum; conditions: 2 µM, 72 h treatment, differentiated THP-1 infected 24 h
Experimental: Figure 2 Effect of 3ca, 3af, and 3aq on intracellular L. infantum amastigotes. Differentiated THP‐1 cells were infected for 24 hours at 37°C; then, the different compounds were added at 2 µM, and the efficacy on intracellular amastigotes was calculated after 72 hours of treatment. Miltefosine was used as a positive control. (A) Percentages of infection are presented as mean ± SD. Ordinary one‐way ANOVA with Dunnett's multiple comparisons test. *p ≤ 0.05, **p ≤ 0.01 *** p ≤ 0.001. (B) Representative merged images showing THP‐1 cells stained with Hoechst dye (blue) and Leishmania amastigotes stained with CFSE (green).
The activity of compounds 3af, 3ca, and 3aq against intracellular amastigotes was evaluated in THP-1 infected cells. Briefly, THP-1 cells were seeded in a 12-well plate with a density of 3 × 10^5 cells/well and, to induce differentiation into macrophage-like cells, were treated with 20 ng/mL phorbol myristic acid (PMA) for 48 h. After differentiation, cells were infected for 24 h with L. infantum MHOM/TN/80/IPT1 promastigotes stained with carboxyfluorescein succinimidyl ester (eBioscience™ CFSE, Invitrogen) as described in reference, with a parasite-to-cell ratio of 10:1. Non-internalized promastigotes were then removed through medium replacement, and infected cells were treated with 3af, 3ca, and 3aq or with the positive control miltefosine for 72 h at concentrations of 2, 10, and 20 μM. To monitor the infection, cells were washed, formaldehyde/methanol fixed, stained with Hoechst dye, and observed with a fluorescence microscope at 5X or 10X magnification. For each field, two images were acquired: one with excitation at 340-390 nm (for Hoechst dye) and the other with excitation at 460-495 nm (for CFSE). Automated cell counting of single-color images was performed with ImageJ software to monitor the rate of infection, which was determined by normalizing the amastigote count from each green (CFSE) image to the THP-1 cell count from the corresponding blue (Hoechst) image. At least 500 THP-1 cells were counted for each condition. […]

[4] = test system: L. infantum MHOM/TN/80/IPT1 promastigotes; experiment: L. infantum promastigotes viability assay (MTS); type: cell-based, Leishmania infantum; conditions: 72 h; for IC50 / inhibition at 20 µM: Leishmania infantum; for IC50: scalar dilutions 2:3 from 20 to 1.17 µM, mean (95% CI); for inhibition at 20 µM / Inhibition of L. infantum at 20 µM (%): single dose 20 µM
Experimental: as §1, §2
Late log/stationary phase L. infantum promastigotes were resuspended in RPMI-PY medium at a density of 2.5×10^6 parasites/mL in 96-well plates (100μL/well). The anti-parasitic activity of the eighteen compounds of the library was initially investigated at a single dose of 20 μM for 72 h at 26 °C. […] Not treated parasites were included as negative control. As positive control, the anti-leishmanial drug miltefosine (Sigma-Aldrich, Milan, Italy) was used. Each condition was carried out in duplicate. To evaluate the promastigotes viability, the CellTiter 96H Aqueous Non-Radioactive Cell Proliferation Assay (Promega), based on the ability of viable cells to convert a soluble tetrazolium salt [3-(4.5-dimethylthiazol-2-yl)-5-(3-carboxymethoxy-phenyl)-2-(4-sulfophenyl)-2H-tetrazolium. MTS] to a formazan product, was performed. To this end, 20 μL of MTS/PMS (phenazinemethosulfate, Sigma-Aldrich) was added to 100 μL of culture medium and incubated at 26°C until formazan production. Absorbance was recorded on a Microplate Reader (Infinite® F50 Plus, Tecan) at 492 nm. The IC50 values were calculated using nonlinear regression curves in GraphPad Prism 8.0 (GraphPad Software,Inc., San Diego, CA). The equation used for data fitting was Y= 100/(1 + 10∧((Log IC50 −X)*HillSlope)) (hillslope not constrained), where X is the log of concentration and Y is the normalized response. […]

[5] = molecular target: L. donovani DNA topoisomerase I; set-up: method as in PMID 17922678; conditions: read-out: IC50 (DNA topoisomerase I poison); cited from earlier work
L. donovani = test system: L. donovani; set-up: method as in PMID 23517732; conditions: read-out: IC50 against L. donovani; cited from earlier work
[6] = test system: human macrophage‐type THP‐1 cell; set-up: method as in PMID 38870204; conditions: cited from earlier work
mammalian cells = test system: mammalian cells; set-up: method as in PMID 34984300; conditions: cited from earlier work
[7] = set-up: method as in PMID 38870204; conditions: cited from earlier work
Leishmania infection = test system: Leishmania infection; set-up: method as in PMID 38870204; conditions: mouse infection model; cited from earlier work

Compound: NCC(c1c[nH]c2cc(Br)ccc12)c1c[nH]c2cc(Br)ccc12 [1a, 2,2‐bis(6‐bromo‐1H‐indol‐3‐yl) ethanamine]
- Activity against L. infantum [1]: active

Compound: C=Cc1ccc(-c2ccc3c(C(CN)c4c[nH]c5cc(-c6ccc(C=C)cc6)ccc45)c[nH]c3c2)cc1 [3af, 2,2-bis(6-(4-vinylphenyl)-1H-indol-3-yl)ethan-1-amine]
- CC50 at 72 h [2]: 24 µM
- Cytotoxicity on THP‐1 (100, 20, 4 µM) (%) (THP-1 cells; 4 µM): −14%
- Cytotoxicity on THP‐1 (100, 20, 4 µM) (%) (THP-1 cells; 20 µM): 97%
- Cytotoxicity on THP‐1 (100, 20, 4 µM) (%) (THP-1 cells; 100 µM): 78%
- SI (Selectivity index = CC50/IC50) (THP-1 cells): 21.8
- Effect on infection (intracellular amastigotes) [3]: significant reduction in the infection; also recorded: significant activity
- IC50 [4]: 1.1 µM
- inhibition at 20 µM [4]: > 98%
- Inhibition of L. infantum at 20 µM (%) [4]: 98.7%

Compound: NCC(c1c[nH]c2cc(-c3cccc4[nH]ccc34)ccc12)c1c[nH]c2cc(-c3cccc4[nH]ccc34)ccc12 [3aq, 2,2-di(1H,1'H-[4,6'-biindol]-3'-yl)ethan-1-amine]
- CC50 at 72 h [2]: 14.6 µM
- Cytotoxicity on THP‐1 (100, 20, 4 µM) (%) (THP-1 cells; 4 µM): −16%
- Cytotoxicity on THP‐1 (100, 20, 4 µM) (%) (THP-1 cells; 20 µM): 72.9% and 73%
- Cytotoxicity on THP‐1 (100, 20, 4 µM) (%) (THP-1 cells; 100 µM): 89%
- SI (Selectivity index = CC50/IC50) (THP-1 cells): 5.2
- Effect on infection (intracellular amastigotes) [3]: significant reduction in the infection; also recorded: significant activity
- IC50 [4]: 2.8 µM
- inhibition at 20 µM [4]: 96.9%

Compound: NCC(c1c[nH]c2c(-c3ccccc3)cccc12)c1c[nH]c2c(-c3ccccc3)cccc12 [3ca, 2,2-bis(7-phenyl-1H-indol-3-yl)ethan-1-amine]
- CC50 at 72 h [2]: 18.1 µM
- Cytotoxicity on THP‐1 (100, 20, 4 µM) (%) (THP-1 cells; 4 µM): −19%
- Cytotoxicity on THP‐1 (100, 20, 4 µM) (%) (THP-1 cells; 20 µM): 98%
- Cytotoxicity on THP‐1 (100, 20, 4 µM) (%) (THP-1 cells; 100 µM): 89%
- SI (Selectivity index = CC50/IC50) (THP-1 cells): 10.7
- Effect on infection (intracellular amastigotes) [3]: significant reduction in the infection; also recorded: significant activity
- IC50 [4]: 1.7 µM
- inhibition at 20 µM [4]: > 98%
- Inhibition of L. infantum at 20 µM (%) [4]: 98.0%

Compound: c1ccc2c(Cc3c[nH]c4ccccc34)c[nH]c2c1 [DIM, 3,3′‐Diindolylmethane]
- IC50 [5]: 1.2 µM

Compound: O=[N+]([O-])c1ccc(C(c2c[nH]c3ccc(I)cc23)c2c[nH]c3ccc(I)cc23)cc1 [II]
- IC50 (L. donovani): < 10 µM

Compound: Clc1ccc(CNCC(c2c[nH]c3cc(Br)ccc23)c2c[nH]c3cc(Br)ccc23)cc1 [I]
- IC50 [1]: 2.7 µM
- CC50 [6]: 11.7 µM

Compound: CCOC(=O)c1c(C(=O)OC)cn(CC(c2cn(C)c3ccccc23)c2cn(C)c3ccccc23)c1C [URB1483]
- Cytotoxicity in mammalian cells (mammalian cells): no quantifiable cytotoxicity
- IC50 [1]: 3.7 µM
- Water solubility [7]: poor
- Outcome of in vivo studies (Leishmania infection): failed

Source: article PMC12319374, “Efficient and Rapid Arylation of NH₂‐Unprotected Bromobisindole Ethanamines via Suzuki‐Miyaura Coupling: Generating New Leads Against Leishmania” (Chemistry (Weinheim an Der Bergstrasse, Germany), 2025)
